For assay [1], the target named is His6-TEV-PDGFRβ (557-1016) (Homo sapiens (Human), UniProt P09619). Nature of the assay: PDGFRβ HTRF Assay. Format: biochemical. Conditions: read-out: PDGFR HTRF IC50. The protocol: Instrumentation: a. Compound liquid handling: LabCyte Echo; b. Reagent liquid handling: Thermo Scientific Multidrop Combi; c. BMG PHERAStar multilabel plate reader.
Protein Reagent: His6-TEV-PDGFRβ Protein Prep prepared at Accelagen.
(§1) II. Methods and Procedures
Assay buffer stock solution, contains 50 mM Hepes, 10 mM MgCl2, 1 mM EGTA, and 0.01% Brij-35, 0.01% ovalbumin, 2 mM DTT at pH 7.5, in molecular biology grade water. Store at room temperature.
DTT, 2 M in molecular biology grade water, store at −20° C. in aliquots.
Ovalbumin, 10% or 100 mg/mL, prepare fresh on experimental day.
PDGFRβ, 116 μM (PDGFRb_08 Prep 02), produced at Accelagen. Store at −80° C. in aliquots.
TK-biotin peptide, […] in molecular biology grade water, store at −20° C. in aliquots.
ATP, 100 mM in molecular biology grade water, store at −20° C. in aliquots.
HTRF KinEASE-TK kit: Allow the contents of the Cisbio kit to warm up to room temperature before use. This kit contains HTRF detection buffer, TK-Antibody labeled with Eu^3+-cryptate, TK-substrate biotin and Streptavidin-XL665.
TK Substrate-Biotin, reconstitute 500 μg lyopholized with 574 μL molecular biology grade water to prepare a 500 μM stock; After use, aliquot the rest and store at −20° C.
TK Antibody-Cryptate, reconstitute lyophilized with 1 mL of molecular biology grade water (100× solution) then add 99 mL detection buffer to prepare a ready to use TK-antibody-cryptate solution; the concentration of the TK-antibody-cryptate reagent is not known. After use, aliquot the rest and store at −20° C.
Streptavidin-XL665, reconstitute 3 mg lyophilized with 3 mL molecular biology grade water to prepare a 1 mg/mL or 16.67 μM stock; MW=60 kDa; After use, aliquot the rest and store at −20° C.
(§2) Freshly Prepared Solutions:
Assay buffer. Dilute 5× Kinase buffer 5-fold with molecular biology grade water and add DTT to 2 mM and ovalbumin to 0.1 mg/mL (or 0.01%).
2× protein solution. Make a working solution of […] PDGFRβ in assay buffer. Keep on ice until use to maintain enzyme stability.
2× substrate solution. Make a working solution of 1.6 mM ATP and 1 μM TK-substrate biotin peptide in assay buffer.
3× quench/detection solution. Make a working solution of 0.1875 μM SA-XL665 and the TK-antibody cryptate diluted by 12 of total quench/detection volume in assay buffer.
Keep final streptavidin/biotin ratio at 1 to 8.
Example of 3× quench/detection solution preparation: 8 mL total volume.
TK antibody-cryptate in detection buffer—4000 μL
The kinase reaction is stopped by the addition of the detection reagents which contain EDTA (detection step).
Assay in white ProxiPlate 384-well
Step 1. Dispensing inhibitors/DMSO and low control: Using the ECHO 555 acoustic dispenser, spot desired compound serial dilutions in DMSO, NEAT DMSO to represent the uninhibited enzyme control, and 10 μM final [imatinib] to the represent the 100% inhibited enzyme control
Step 2. PDGFRβ E+I pre-incubation: Add 2 μL 2× protein solution to columns 1-24 using the Multidrop Combi. Centrifuge at 1000 rpm for 1 min. Incubate 30 min at RT
Step 2. Enzymatic reaction: Add 2 μL substrate solution to columns 1-24 to initiate the reaction using the Multidrop Combi; cover/seal the assay plate to reduce evaporation. Centrifuge at 1000 rpm for 1 min. Incubate at room temperature for 3 hours.
Step 3. Quench/Detection: Add 2 μl 3× quench/detection solution to columns 1-24 using the Multidrop Combi; cover/seal the plate. Centrifuge 1 min 1000 rpm. Incubate at RT for 60 min. Read the plate in PHERAstar (or similar instrument) on HTRF setting at excitation 337 nm—dual emission—665/620 nm ratio.
(§3) III. Calculations and Formulas
HTRF ratio values calculated by the instrument (Ratio is acceptor counts/donor counts*10,000) is exported from the plate reader and used in data analysis. […] Assay statistics can include Robust Z′ and Signal to Background.
% Inhibition Calculation: Percent inhibition will be calculated for sample wells based on the equation: […]
For orientation: In TR-FRET formats the signal depends on donor and acceptor labels being close together.

The target of another assay is PDGFRβ (Rattus norvegicus (Rat), UniProt Q05030). Nature of the assay: PDGFRβ Cellular Assay (PDGFRb P-Y751 HTRF in A10 cells stimulated with PDGF-BB). In kind it is cell-based. The protocol:
as §1
Cell Culture and Preparation: Cells are cultured according to ATCC procedure (5) with the addition of the antibiotic penicillin-streptomycin. If working from frozen, cells should be thawed according to ATCC procedure. Depending on the cell density of frozen vial, cells will need time to recover from thaw. An 80% confluent T75 flask should be enough for one 384 well plate.
Stock Solutions: Rat PDGFBB. A 100 ug/mL stock is prepared by reconstituting 50 ug in 500 uL of 4 mM HCl and 0.1% BSA. It can be stored for a month at 4° C., or aliquoted out and frozen in the −20/−80° C. to avoid multiple free-thaw cycles.
as §2
1× Cisbio cell lysis buffer. The cell lysis buffer is diluted 4-fold with molecular grade water. The blocking agent is then diluted 25-fold in the diluted lysis buffer.
Antibody solutions. Equal amounts d2 and cryptate antibody are diluted 20-fold in detection buffer.
Rat PDGFBB. A working stock of 100 ng/mL is created from the stock solution in 10% FBS culture media.
Step 1: Plating Cells: Media from the A10 cell flask is aspirated. The cells are rinsed with PBS and then trypsinized to disperse the cell layer. The cells are then pelleted are resuspended to 1.25e5 cells/mL. […] Plates are covered and placed in the incubator (37° C. 5% CO2) overnight to allow cells to adhere.
Step 2: Compound Dispense: Approximately 18 hours after plating, dispense 40 nL compound onto cells using Echo. Column 12 is the neutral control DMSO, column 24 is the inhibitor control 10 mM Imatinib (10 uM final assay concentration). The plate is returned to the incubator for 3 hours.
After 10 minutes the media is removed by flicking the plate.
Step 4: Cell lysis and antibody addition: 20 uL lysis buffer per well is added to the plate via Tempest. 5 uL antibody solution is added per well via the Tempest. The plate is placed on the shaker at 230 rpm for 1 hour at room temperature.
Step 5: Detection: The plate is read using the HTRF module on the BMG Pherastar. Data is analyzed using Genedata Screener.
as §3
% Inhibition: % Inhibition=(NC−sample)/(NC−PC)*100 where NC is the mean of negative control (reactions without inhibitor), and PC is the mean of positive control (10 μM imatinib).
IC50 values are determined from a 4-parameter fit, using the following equation: Y=Bottom+(Top−Bottom)/(1+10((Log IC50−X)*Hill slope)), where X=log10 of the compound concentration; top can be defined by PC; bottom defined by NC.

For the next assay, the target named is VEGFR2, unphosphorylated (Homo sapiens (Human), UniProt P35968). Nature of the assay: VEGFR ADP GLO Assay. Format: biochemical. As to the method: as §1
VEGFR2, unphosphorylated, sequence (P35968 20-1356): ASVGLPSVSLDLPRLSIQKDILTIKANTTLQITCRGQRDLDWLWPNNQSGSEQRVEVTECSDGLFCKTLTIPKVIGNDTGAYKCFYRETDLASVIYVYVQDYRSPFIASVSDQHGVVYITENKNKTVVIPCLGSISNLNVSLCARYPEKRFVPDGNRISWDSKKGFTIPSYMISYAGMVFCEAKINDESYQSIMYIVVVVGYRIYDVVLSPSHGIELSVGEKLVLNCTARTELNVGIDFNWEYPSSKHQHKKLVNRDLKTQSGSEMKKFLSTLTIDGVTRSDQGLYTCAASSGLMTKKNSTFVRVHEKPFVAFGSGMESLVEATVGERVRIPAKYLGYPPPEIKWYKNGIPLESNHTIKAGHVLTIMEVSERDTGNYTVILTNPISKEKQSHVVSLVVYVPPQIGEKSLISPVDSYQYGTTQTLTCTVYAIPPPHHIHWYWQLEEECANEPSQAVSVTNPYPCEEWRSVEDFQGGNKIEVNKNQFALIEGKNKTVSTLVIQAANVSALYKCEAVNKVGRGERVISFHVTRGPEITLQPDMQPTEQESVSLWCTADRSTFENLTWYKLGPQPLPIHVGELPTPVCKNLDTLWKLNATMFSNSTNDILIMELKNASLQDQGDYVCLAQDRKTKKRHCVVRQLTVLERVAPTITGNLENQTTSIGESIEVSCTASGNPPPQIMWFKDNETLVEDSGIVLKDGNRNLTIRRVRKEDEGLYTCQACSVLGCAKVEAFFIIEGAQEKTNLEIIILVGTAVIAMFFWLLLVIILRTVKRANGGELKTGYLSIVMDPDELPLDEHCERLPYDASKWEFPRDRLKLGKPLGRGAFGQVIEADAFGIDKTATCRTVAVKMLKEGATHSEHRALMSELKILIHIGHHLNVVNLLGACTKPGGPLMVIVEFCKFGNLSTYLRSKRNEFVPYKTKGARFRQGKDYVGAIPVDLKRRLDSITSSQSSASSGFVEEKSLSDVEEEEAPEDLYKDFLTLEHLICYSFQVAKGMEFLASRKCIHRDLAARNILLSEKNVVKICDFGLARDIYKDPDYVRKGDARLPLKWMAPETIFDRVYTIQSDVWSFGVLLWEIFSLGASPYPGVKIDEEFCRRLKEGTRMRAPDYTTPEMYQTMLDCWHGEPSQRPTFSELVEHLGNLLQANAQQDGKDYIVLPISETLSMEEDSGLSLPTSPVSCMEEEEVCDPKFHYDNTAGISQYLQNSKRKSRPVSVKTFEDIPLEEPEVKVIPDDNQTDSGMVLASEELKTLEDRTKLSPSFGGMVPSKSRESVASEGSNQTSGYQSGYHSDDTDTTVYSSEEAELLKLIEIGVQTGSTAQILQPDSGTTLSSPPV
Assay buffer stock contains 50 mM HEPES pH7.5, 10 mM MgCl2, 0.01% Brij-35, and 1 mM EGTA.
Unphosphorylated VEGFR2. […] Store at −80° C. in aliquots.
Sonicate 10 mg/ml Srctide solution for 10 minutes and then vacuum filter.
Freshly Prepared Solutions
2× kinase solution. Make a working solution of 10 nM unphosphorylated VEGFR2 in Assay buffer. Vacuum filter 2× kinase solution prior to running assay. Keep on ice until use.
2× substrate/ATP solution. Make a working solution of 2 mg/mL srctide and 2.4 mM ATP in Assay buffer. Keep on ice until use.
Step 1. Dispensing inhibitors/controls: Using Echo, dispense 10 nL/well compound serial dilutions in DMSO to columns 1-22 (in 384-well plates) or columns 1-44 (in 1536-well plates). Dilution series=11 pt, 3-fold dilutions. The top compound concentration in the source plate is 4 mM. The top compound concentration in the assay plate is 10 uM. Using Echo, dispense 10 nl/well DMSO to column 23 (in 384-well plates) or columns 45-47 (in 1536-well plates). […] These wells will serve as positive control wells.
Step 2. Pre-incubation of inhibitors with kinase: Add 2 μL/well 2× kinase solution. Centrifuge at 1000 rpm for 1 min. Incubate at room temperature for 30 min.
Step 3. Kinase cascade reaction: Add 2 μL/well 2× substrate/ATP solution to initiate kinase reactions. Centrifuge at 1000 rpm for 1 min. Incubate at room temperature for 180 min.
Final concentrations of components in the assay:
Step 4. Quench: Add 2 uL/well ADP Glo Reagent+0.05% CHAPS. Centrifuge at 1000 rpm for 1 min; Incubate at room temperature for one hour.
Step 5. Detection: Add 2 uL/well Kinase Detection Reagent+0.05% CHAPS. Centrifuge at 1000 rpm for 1 min; Incubate at room temperature for 1 hour; Read Luminescence on a plate reader.
as §3
IC50 values are determined from a 4-parameter fit, using the following equation: Y=Bottom+(Top−Bottom)/(1+10^(Log IC50-X)*Hill slope) where X=log10 of the compound concentration; top can be defined by PC; bottom defined by NC.

Like-named read-outs stand apart in the source and are kept apart here. Some results are limits rather than exact numbers.

PDGFRβ, sequence (Q05030 32-1097): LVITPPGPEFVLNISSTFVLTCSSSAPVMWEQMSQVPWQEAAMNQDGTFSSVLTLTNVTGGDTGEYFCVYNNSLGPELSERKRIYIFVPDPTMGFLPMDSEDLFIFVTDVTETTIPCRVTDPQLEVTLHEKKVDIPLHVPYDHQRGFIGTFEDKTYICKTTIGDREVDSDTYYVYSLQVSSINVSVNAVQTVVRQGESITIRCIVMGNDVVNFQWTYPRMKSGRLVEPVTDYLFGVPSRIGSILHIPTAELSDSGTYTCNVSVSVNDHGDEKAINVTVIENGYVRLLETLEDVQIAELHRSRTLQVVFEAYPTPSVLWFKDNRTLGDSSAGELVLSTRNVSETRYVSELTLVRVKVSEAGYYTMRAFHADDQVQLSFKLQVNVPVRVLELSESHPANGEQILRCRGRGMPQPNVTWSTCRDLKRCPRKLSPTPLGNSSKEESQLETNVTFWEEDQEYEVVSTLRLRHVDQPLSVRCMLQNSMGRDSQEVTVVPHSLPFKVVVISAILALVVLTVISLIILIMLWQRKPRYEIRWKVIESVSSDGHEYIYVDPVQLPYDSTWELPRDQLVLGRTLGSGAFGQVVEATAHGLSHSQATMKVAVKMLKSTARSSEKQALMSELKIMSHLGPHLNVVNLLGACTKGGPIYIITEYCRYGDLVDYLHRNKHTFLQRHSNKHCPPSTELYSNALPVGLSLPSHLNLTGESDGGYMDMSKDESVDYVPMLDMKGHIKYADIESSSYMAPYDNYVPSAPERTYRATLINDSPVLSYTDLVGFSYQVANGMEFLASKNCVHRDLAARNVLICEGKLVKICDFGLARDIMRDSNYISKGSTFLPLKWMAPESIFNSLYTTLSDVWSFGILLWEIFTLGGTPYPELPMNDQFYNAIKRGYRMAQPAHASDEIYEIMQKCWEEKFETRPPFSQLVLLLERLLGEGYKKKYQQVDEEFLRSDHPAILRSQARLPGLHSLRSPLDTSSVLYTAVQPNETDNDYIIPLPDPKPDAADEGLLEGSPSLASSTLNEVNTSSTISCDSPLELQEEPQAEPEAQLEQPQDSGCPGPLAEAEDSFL
His6-TEV-PDGFRβ (557-1016), sequence (P09619 557-1016): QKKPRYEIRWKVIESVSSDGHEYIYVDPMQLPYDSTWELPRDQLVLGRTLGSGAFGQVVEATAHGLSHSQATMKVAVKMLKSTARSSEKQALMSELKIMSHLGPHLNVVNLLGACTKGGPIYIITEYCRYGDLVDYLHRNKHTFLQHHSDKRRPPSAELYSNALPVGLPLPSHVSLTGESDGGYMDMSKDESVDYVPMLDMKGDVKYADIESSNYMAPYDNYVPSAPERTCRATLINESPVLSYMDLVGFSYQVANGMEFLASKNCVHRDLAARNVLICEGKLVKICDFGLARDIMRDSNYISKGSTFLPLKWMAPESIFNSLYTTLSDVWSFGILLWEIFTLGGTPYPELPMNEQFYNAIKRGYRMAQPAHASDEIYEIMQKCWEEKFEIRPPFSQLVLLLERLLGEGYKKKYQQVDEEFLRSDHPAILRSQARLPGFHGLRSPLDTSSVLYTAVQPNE

In general, IC50 refers to the concentration at which inhibition is half-maximal. In the case of `Cc1ncc(NC(=O)CN2C[C@H](C)O[C@@H](C)C2)cc1NC(=O)c1cnn2cc(-c3ccc[nH]c3=O)sc12` (relative stereo) [Example 370, N-(5-(2-(trans-2,6-dimethylmorpholino)acetamido)-2-methylpyridin-3-yl)-2-(2-oxo-1,2-dihydropyridin-3-yl)pyrazolo[5,1-b]thiazole-7-carboxamide], the IC50 in assay [1] is 1 nM; at PDGFRβ (PDGFR Cellular IC50) it was 544 nM; at VEGFR2, unphosphorylated, over 7500 nM.
For `COCCn1cc(-c2cn3ncc(C(=O)Nc4cc(NC(=O)CN5CC[C@@H](C)C5)cnc4C)c3s2)cn1` (single isomer, unassigned) [Example 327, (R*)-2-(1-(2-methoxyethyl)-1H-pyrazol-4-yl)-N-(2-methyl-5-(2-(3-methylpyrrolidin-1-yl)acetamido)pyridin-3-yl)pyrazolo[5,1-b]thiazole-7-carboxamide], the IC50 on PDGFRβ (read-out: PDGFR Cellular IC50) is 9.9 nM; against VEGFR2, unphosphorylated, over 7500 nM.
On the same counts, the results for `COCCn1cc(-c2cn3ncc(C(=O)Nc4cc(NC(=O)CN5CC[C@H](C)C5)cnc4C)c3s2)cn1` (single isomer, unassigned) [Example 328, (S*)-2-(1-(2-methoxyethyl)-1H-pyrazol-4-yl)-N-(2-methyl-5-(2-(3-methylpyrrolidin-1-yl)acetamido)pyridin-3-yl)pyrazolo[5,1-b]thiazole-7-carboxamide] are 7.1 nM and over 7500 nM.
On to `COc1ncccc1-c1cn2ncc(C(=O)Nc3cc(NC(=O)CN4C[C@H](CO)O[C@@H](C)C4)cnc3C)c2s1` (stereo in doubt) [Example 381, N-(5-(2-(cis-2-(hydroxymethyl)-6-methylmorpholino)acetamido)-2-methylpyridin-3-yl)-2-(2-methoxypyridin-3-yl)pyrazolo[5,1-b]thiazole-7-carboxamide], for which the 50% inhibitory concentration (IC50) on PDGFRβ (read-out: PDGFR Cellular IC50) is 16 nM; against VEGFR2, unphosphorylated, over 833 nM.
Take `Cc1ncc(C(=O)NCCN2CC3CCC2CC3)cc1NC(=O)c1cnn2cc(-c3cnn(C)c3)sc12` [Example 1, N-(5-((2-(2-azabicyclo[2.2.2]octan-2-yl)ethyl)carb-amoyl)-2-methylpyridin-3-yl)-2-(1-methyl-1H-pyrazol-4-yl)pyrazolo[5,1-b]thiazole-7-carboxamide]: the IC50 is 0.2 nM in assay [1]; 33.8 nM at PDGFRβ (PDGFR Cellular IC50); over 7500 nM at VEGFR2, unphosphorylated.
As for `COc1ncccc1-c1cn2ncc(C(=O)Nc3cc(NC(=O)CN4CC(OC)C4)cnc3C)c2s1` [Example 400, N-(5-(2-(3-methoxyazetidin-1-yl)acetamido)-2-methylpyridin-3-yl)-2-(2-methoxypyridin-3-yl)pyrazolo[5,1-b]thiazole-7-carboxamide], the IC50 was 14.8 nM against PDGFRβ (PDGFR Cellular IC50) and over 7500 nM on VEGFR2, unphosphorylated.
In the case of `CCOC1CN(CC(=O)Nc2cnc(C)c(NC(=O)c3cnn4cc(-c5cccnc5OC)sc34)c2)C1` [Example 401], the 50% inhibitory concentration (IC50) at PDGFRβ (read-out: PDGFR Cellular IC50) came to 10.3 nM.
For the compound `Cc1ncc(NC(=O)CN2CCC[C@@H]2C)cc1NC(=O)c1cnn2cc(-c3cn(C)nc3C)sc12` [Example 438, (S)-2-(1,3-dimethyl-1H-pyrazol-4-yl)-N-(2-methyl-5-(2-(2-methylpyrrolidin-1-yl)acetamido)pyridin-3-yl)pyrazolo[5,1-b]thiazole-7-carboxamide], the IC50 on PDGFRβ (PDGFR Cellular IC50) is 3.7 nM; at VEGFR2, unphosphorylated, over 7500 nM.
For `COC1CCN(CC(=O)Nc2cnc(C)c(NC(=O)c3cnn4cc(-c5cn(C)nc5C)sc34)c2)C1` (stereo not drawn) [Example 439, 2-(1,3-Dimethyl-1H-pyrazol-4-yl)-N-(5-(2-(3-methoxypyrrolidin-1-yl)acetamido)-2-methylpyridin-3-yl)pyrazolo[5,1-b]thiazole-7-carboxamide], the IC50 is 12.2 nM at PDGFRβ (PDGFR Cellular IC50) and over 7500 nM on VEGFR2, unphosphorylated.
`Cc1ncc(NC(=O)CN2CCC[C@H]2C)cc1NC(=O)c1cnn2cc(-c3cn(C)nc3C)sc12` [Example 440, (R)-2-(1,3-dimethyl-1H-pyrazol-4-yl)-N-(2-methyl-5-(2-(2-methylpyrrolidin-1-yl)acetamido)pyridin-3-yl)pyrazolo[5,1-b]thiazole-7-carboxamide]: the IC50 at PDGFRβ (PDGFR Cellular IC50) is 1.6 nM; at VEGFR2, unphosphorylated it was over 7500 nM.

These data come from patent publication US20240109917A1 (ACTELION PHARMACEUTICALS LTD, priority 2020, published 2024).
